According to the OPERA property sets (Mansouri et al. 2018):
Peptide text beside a SMILES is read from it. * marks the point of attachment. NHtBu = CC(C)(C)N*

Question: For `CCCCCCOc1ccccc1NC(=O)OCCN1CCCCC1`, which logP is on record?
Answer: The logP was 5.29.

Question: With `O=C([O-])c1ccccc1O.[Na+]` as the compound, how does the logP read?
Answer: Its logP is -1.43.

Question: Which logP does the source give for `CC(C)c1ccc(OCC(=O)O)cc1` here?
Answer: The logP was 2.69.

Question: Which logP does the source give for `O=NN(CCCl)C(=O)NC1C(O)CCCC1O` (stereo unspecified) here?
Answer: Its logP is 0.16.

Question: With `O=C(Nc1ccccc1)c1ccccc1O` as the compound, how does the logP read?
Answer: Its logP is 3.27.

Question: With `O=C1c2ccccc2C(=O)N1SC(Cl)(Cl)Cl` as the compound, how does the logP read?
Answer: Its logP is 2.85.

Question: With `O=C(O)c1ccccc1Cl` as the compound, how does the logP read?
Answer: The logP was 2.05.

Question: For `CN(C)C(=O)C(C(=O)N(C)C)C(=O)N(C)C`, which logP is on record?
Answer: Its logP is -3.09.

Question: For `OCCCc1ccccn1`, which logP is on record?
Answer: Its logP is 0.58.

Question: With `Cc1ccc2cc(C)ccc2c1` as the compound, how does the logP read?
Answer: Its logP is 4.31.

Question: For `CN(C)C(=O)OCc1cccc(N(C)C)c1`, which logP is on record?
Answer: The logP was 2.28.

Question: With `CN(C)N=Nc1ccc(C=CC(=O)O)cc1` as the compound, how does the logP read?
Answer: The logP was 2.66.

Question: For `CC(=O)C1CCC2C3CCC4=CC(=O)CCC4(C)C3C(O)CC12C` (stereo unspecified), which logP is on record?
Answer: The logP was 2.36.

Question: Which logP does the source give for `Cc1cccc(C)c1[N+](=O)[O-]` here?
Answer: Its logP is 2.95.

Question: Which logP does the source give for `Cn1nc2ccccc2n1` here?
Answer: The logP was 1.64.

Question: For `CC#N`, which logP is on record?
Answer: The logP was -0.34.

Question: With `O=[N+]([O-])C=Cc1cccc([N+](=O)[O-])c1` as the compound, how does the logP read?
Answer: Its logP is 1.82.

Question: Which logP does the source give for `OCC(CO)(CBr)CBr` here?
Answer: Its logP is 1.06.

Question: With `Cc1ncc([N+](=O)[O-])n1CC(C)O` (stereo unspecified) as the compound, how does the logP read?
Answer: Its logP is 0.22.

Question: Which logP does the source give for `CCc1cccc(N2C(=O)CCC2=O)c1` here?
Answer: Its logP is 1.04.

Question: For `O=c1cc(-c2ccccc2)o[nH]1`, which logP is on record?
Answer: Its logP is 2.55.

Question: For `CN(C)CCN(C)C`, which logP is on record?
Answer: The logP was 0.3.

Question: For `O=Cc1ccccc1Cl`, which logP is on record?
Answer: Its logP is 2.33.

Question: For `CCCCCOCc1ccccc1NC(=O)OCCN1CCCCC1`, which logP is on record?
Answer: The logP was 4.42.

Question: With `CON(C)C(=O)Nc1cccc([N+](=O)[O-])c1` as the compound, how does the logP read?
Answer: The logP was 1.64.

Question: For `CC(C)[C@@H](N)Cc1ccccc1`, which logP is on record?
Answer: The logP was 2.59.

Question: For `Oc1cccc(-c2ccccc2)c1`, which logP is on record?
Answer: Its logP is 3.23.

Question: With `CC(C)CC(N)C(=O)OCn1ncc2c(=O)[nH]cnc21` (stereo unspecified) as the compound, how does the logP read?
Answer: Its logP is 0.19.

Question: With `O=C1c2ccccc2C(=O)N1c1ccccc1` as the compound, how does the logP read?
Answer: The logP was 2.4.

Question: With `CCCCC(=O)O` as the compound, how does the logP read?
Answer: The logP was 1.39.

Question: With `O=Cc1ccc2ccccc2n1` as the compound, how does the logP read?
Answer: The logP was 2.14.

Question: For `N#Cc1cccc2[nH]ccc12`, which logP is on record?
Answer: Its logP is 2.46.

Question: With `Clc1nc(Cl)c(Cl)c(Cl)c1Cl` as the compound, how does the logP read?
Answer: Its logP is 3.53.

Question: With `COc1ccc(COC(=O)N(C)C)cc1` as the compound, how does the logP read?
Answer: The logP was 2.2.

Question: Which logP does the source give for `Nc1c2ccccc2nc2ccccc12` here?
Answer: Its logP is 2.74.

Question: Which logP does the source give for `C[C@]12CCC(=O)C=C1CC[C@@H]1[C@@H]2C(=O)C[C@@]2(C)[C@H]1CC[C@]2(O)C(=O)CO` here?
Answer: Its logP is 1.47.

Question: With `CN(C)c1ccc(C(=C2C=CC(=[N+](C)C)C=C2)c2ccccc2)cc1.[Cl-]` as the compound, how does the logP read?
Answer: The logP was 0.62.

Question: Which logP does the source give for `CCCCCOc1cccc(O)c1` here?
Answer: The logP was 3.63.

Question: With `C=CC(=O)O` as the compound, how does the logP read?
Answer: The logP was 0.35.

Question: With `CC(C)N(CCC(C(N)=O)c1ccc(-c2ccccc2)cc1)C(C)C` (stereo unspecified) as the compound, how does the logP read?
Answer: The logP was 3.66.

Question: For `FC(F)(F)c1nc2ccc(Br)cc2[nH]1`, which logP is on record?
Answer: The logP was 3.57.

Question: Which logP does the source give for `CC(Cl)C(=O)NC(CO)C(O)c1ccc([N+](=O)[O-])cc1` (stereo unspecified) here?
Answer: The logP was 0.98.

Question: Which logP does the source give for `c1ccc(-c2ccc3ccccc3n2)cc1` here?
Answer: Its logP is 3.9.

Question: Which logP does the source give for `NC(=O)c1cccc(F)c1` here?
Answer: The logP was 0.91.

Question: Which logP does the source give for `Cc1ccc(O)c(O)c1` here?
Answer: The logP was 1.37.

Question: With `Cc1ccc(NS(=O)(=O)C(F)(F)F)cc1` as the compound, how does the logP read?
Answer: The logP was 3.6.

Question: For `CN(C)C(=O)OCc1ccc(OCc2ccccc2)cc1`, which logP is on record?
Answer: Its logP is 3.27.

Question: With `CC(=O)N(C)N=Nc1ccc(C(N)=O)cc1` as the compound, how does the logP read?
Answer: Its logP is 1.37.

Question: With `CC(C)CN` as the compound, how does the logP read?
Answer: Its logP is 0.73.

Question: Which logP does the source give for `O=C(O)CCCC(=O)O` here?
Answer: Its logP is -0.29.

Question: Which logP does the source give for `N#Cc1ccc(NC=O)cc1` here?
Answer: The logP was 1.08.

Question: For `[O-][n+]1cccc2ccccc21`, which logP is on record?
Answer: The logP was 0.36.

Question: With `CCCCNc1nc(NCC)nc(SC(F)F)n1` as the compound, how does the logP read?
Answer: Its logP is 4.51.

Question: With `CN(c1ccccn1)S(=O)(=O)c1ccc(N)cc1` as the compound, how does the logP read?
Answer: Its logP is 1.3.

Question: Which logP does the source give for `O=c1[nH]c(=O)n([C@H]2C[C@H](O)[C@@H](CO)O2)cc1Br` here?
Answer: Its logP is -0.29.

Question: For `COc1cc([C@@H]2c3cc4c(cc3C(O[C@@H]3O[C@@H]5CO[C@@H](C)O[C@H]5[C@H](O)[C@H]3O)C3COC(=O)[C@@H]32)OCO4)cc(OC)c1O` (stereo partly specified), which logP is on record?
Answer: The logP was 0.6.

Question: With `COc1ccc(C(=O)O)cc1OC` as the compound, how does the logP read?
Answer: The logP was 1.61.

Question: For `CCc1ccccc1OC(C)=O`, which logP is on record?
Answer: Its logP is 2.42.

Question: Which logP does the source give for `CCCCC[N+](=O)[O-]` here?
Answer: The logP was 2.01.

Question: Which logP does the source give for `O=C(O)c1c(F)cccc1Cl` here?
Answer: Its logP is 2.11.

Question: For `NC(=O)c1cc([N+](=O)[O-])cc([N+](=O)[O-])c1`, which logP is on record?
Answer: Its logP is 0.83.

Question: With `CCCNC(=O)c1ccc(S(N)(=O)=O)cc1` as the compound, how does the logP read?
Answer: The logP was 0.51.

Question: Which logP does the source give for `CN(C)c1ccc(Cl)nn1` here?
Answer: Its logP is 0.98.

Question: Which logP does the source give for `O=C(NC(=O)c1ccccc1O)c1ccccc1O` here?
Answer: Its logP is 1.92.

Question: Which logP does the source give for `Nc1ccc(C(=O)Oc2cccc(C(F)(F)F)c2)c(O)c1` here?
Answer: The logP was 3.61.

Question: Which logP does the source give for `C1=CCOC1` here?
Answer: Its logP is 0.46.

Question: Which logP does the source give for `CC(=O)NC(C)C(=O)NC(Cc1c[nH]c2ccccc12)C(=O)NC(C)C(=O)NC(C)(C)C` (stereo not drawn) (Ac-Ala-Trp-Ala-NHtBu; configuration not given here) here?
Answer: The logP was 1.26.

Question: With `O=C(O)c1ccoc1` as the compound, how does the logP read?
Answer: Its logP is 1.03.

Question: With `COC(=O)CCCCC(=O)OC` as the compound, how does the logP read?
Answer: Its logP is 1.03.

Question: With `CCCCOC(=O)c1ccccc1` as the compound, how does the logP read?
Answer: Its logP is 3.84.

Question: Which logP does the source give for `FC(F)Oc1ccccc1` here?
Answer: Its logP is 2.44.

Question: Which logP does the source give for `C#CCn1cncc1[N+](=O)[O-]` here?
Answer: Its logP is 0.52.

Question: For `CS(=O)CC(=O)C=NO` (stereo unspecified), which logP is on record?
Answer: Its logP is -0.72.

Question: For `O=Nc1ccccc1`, which logP is on record?
Answer: Its logP is 2.01.

Question: With `OCCCCCl` as the compound, how does the logP read?
Answer: Its logP is 0.85.

Question: For `COc1ccncc1`, which logP is on record?
Answer: The logP was 1.

Question: Which logP does the source give for `Cl[C@@H]1CCCC[C@H]1Cl` here?
Answer: The logP was 3.21.

Question: With `C=C(C)C(=O)OC(C)(C)C` as the compound, how does the logP read?
Answer: The logP was 2.54.

Question: Which logP does the source give for `S=C=NC(c1ccccc1)(c1ccccc1)c1ccccc1` here?
Answer: The logP was 7.02.

Question: Which logP does the source give for `CC(O)C(C)O` (stereo unspecified) here?
Answer: The logP was -0.92.

Question: For `O=[N+]([O-])Cc1ccccc1`, which logP is on record?
Answer: Its logP is 1.75.
